pIC50: −log10 of the molar value.
Tests used:
[1] = tested on: MOLM-13 cells (human acute myeloid leukemia cells); experiment: MOLM-13 Cellular Assay; format: cell-based; conditions: 72 hours exposure, cell viability by CellTiter-Glo
Summary of the method: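 MOLM-13 AML cells, seeded at 5,000/well in RPMI 1640 with 10% FBS, were treated with compounds right after seeding for 72 h at 37 °C, 5% CO2. Viability read by CellTiter-Glo luminescence.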

human DHODH = human DHODH (Homo sapiens (Human), UniProt Q02127); experiment: DHODH Enzymatic Assay; format: biochemical; conditions: purified human DHODH, DCIP absorbance, end-point mode; read-out: hDHODH IC50
Summary of the method: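 Purified human DHODH in […] HEPES pH 7.5, 150 mM NaCl, 0.5 mM EDTA, 0.1% Triton X-100; reaction started with substrate mix of 20 mM DHO, 5 mM CoQ6, 1 mM DCIP. End-point read as DCIP reduction (absorbance ~600 nm) after brequinar quench.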

Sequence of human DHODH (Q02127 whole entry): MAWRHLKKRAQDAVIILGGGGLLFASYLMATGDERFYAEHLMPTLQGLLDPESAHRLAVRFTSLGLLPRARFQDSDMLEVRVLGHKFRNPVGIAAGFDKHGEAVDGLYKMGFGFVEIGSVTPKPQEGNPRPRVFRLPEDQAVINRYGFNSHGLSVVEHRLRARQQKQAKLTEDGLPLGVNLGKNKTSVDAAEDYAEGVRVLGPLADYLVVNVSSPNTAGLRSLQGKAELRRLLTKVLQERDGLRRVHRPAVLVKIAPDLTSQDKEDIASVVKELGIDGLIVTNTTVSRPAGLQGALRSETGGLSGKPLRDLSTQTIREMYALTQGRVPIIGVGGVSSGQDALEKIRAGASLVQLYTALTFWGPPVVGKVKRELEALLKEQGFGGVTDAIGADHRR

Structure (SMILES) | pIC50 ([1]; Homo sapiens, MOLM-13, 72 h) | pIC50 (human DHODH) | pIC50 [1]
CCn1c(CO)nn(-c2cc3c(C(C)C)cn(-c4cc(F)ccc4F)c(=O)c3cc2F)c1=O [Example 68, 2-(2,5-Difluorophenyl)-6-(4-ethyl-3-(hydroxymethyl)-5-oxo-4,5-dihydro-1H-1,2,4-triazol-1-yl)-7-fluoro-4-isopropylisoquinolin-1(2H)-one] | 8.52 | 8.66 | –
C=C(C)c1cn(-c2c(C)cnc(OC)c2C)c(=O)c2cc(F)c(-n3nc(CO)n(CC)c3=O)cc12 [Example 71, 6-(4-Ethyl-3-(hydroxymethyl)-5-oxo-4,5-dihydro-1H-1,2,4-triazol-1-yl)-7-fluoro-2-(2-methoxy-3,5-dimethylpyridin-4-yl)-4-(prop-1-en-2-yl)isoquinolin-1(2H)-one] | 8.00 | 8.69 | –
C=C(C)c1cn(-c2cc(F)ccc2F)c(=O)c2cc(F)c(-n3nc(CO)n(CC)c3=O)cc12 [Example 72, 2-(2,5-Difluorophenyl)-6-(4-ethyl-3-(hydroxymethyl)-5-oxo-4,5-dihydro-1H-1,2,4-triazol-1-yl)-7-fluoro-4-(prop-1-en-2-yl)isoquinolin-1(2H)-one] | 8.70 | 9.02 | –
CCn1c(CO)nn(-c2cc3c(C(C)C)cn(-c4cccc(F)c4C)c(=O)c3cc2F)c1=O [Example 74, 6-(4-Ethyl-3-(hydroxymethyl)-5-oxo-4,5-dihydro-1H-1,2,4-triazol-1-yl)-7-fluoro-2-(3-fluoro-2-methylphenyl)-4-isopropylisoquinolin-1(2H)-one] | 8.15 | 8.65 | –
C=C(C)c1cn(-c2ccc(F)cc2C)c(=O)c2cc(F)c(-n3nc(CO)n(CC)c3=O)cc12 [Example 76, 6-(4-Ethyl-3-(hydroxymethyl)-5-oxo-4,5-dihydro-1H-1,2,4-triazol-1-yl)-7-fluoro-2-(4-fluoro-2-methylphenyl)-4-(prop-1-en-2-yl)isoquinolin-1(2H)-one] | 8.40 | 8.82 | –
CCn1c(CO)nn(-c2cc3c(C(C)C)cn(-c4ccccc4F)c(=O)c3cc2F)c1=O [Example 77, 6-(4-Ethyl-3-(hydroxymethyl)-5-oxo-4,5-dihydro-1H-1,2,4-triazol-1-yl)-7-fluoro-2-(2-fluorophenyl)-4-isopropylisoquinolin-1(2H)-one] | 8.52 | 8.73 | –
CCn1c(CO)nn(-c2cc3c(C(C)C)cn(-c4c(C)cnc(OC)c4C)c(=O)c3cc2F)c1=O [Example 78, 6-(4-Ethyl-3-(hydroxymethyl)-5-oxo-4,5-dihydro-1H-1,2,4-triazol-1-yl)-7-fluoro-4-isopropyl-2-(2-methoxy-3,5-dimethylpyridin-4-yl)isoquinolin-1(2H)-one] | 7.70 | 8.63 | –
C=C(c1cn(-c2ccccc2C)c(=O)c2cc(F)c(-n3nc(CO)n(CC)c3=O)cc12)C(F)(F)F [Example 81, 6-(4-Ethyl-3-(hydroxymethyl)-5-oxo-4,5-dihydro-1H-1,2,4-triazol-1-yl)-7-fluoro-2-(o-tolyl)-4-(3,3,3-trifluoroprop-1-en-2-yl)isoquinolin-1(2H)-one] | 9.52 | 9.65 | –
C=C(C)c1cn(-c2ccccc2OC)c(=O)c2cc(F)c(-n3nc(CO)n(CC)c3=O)cc12 [Example 83, 6-(4-Ethyl-3-(hydroxymethyl)-5-oxo-4,5-dihydro-1H-1,2,4-triazol-1-yl)-7-fluoro-2-(2-methoxyphenyl)-4-(prop-1-en-2-yl)isoquinolin-1(2H)-one] | ≥ 9.70 | 9.35 | 9.70
C=C(C)c1cn(-c2cc(C)cnc2Cl)c(=O)c2cc(F)c(-n3nc(CO)n(CC)c3=O)cc12 [Example 84, 2-(2-Chloro-5-methylpyridin-3-yl)-6-(4-ethyl-3-(hydroxymethyl)-5-oxo-4,5-dihydro-1H-1,2,4-triazol-1-yl)-7-fluoro-4-(prop-1-en-2-yl)isoquinolin-1(2H)-one] | 7.15 | 8.18 | –
C=C(C)c1cn(-c2cc(C)ccc2C)c(=O)c2cc(F)c(-n3nc(CO)n(CC)c3=O)cc12 [Example 87, 2-(2,5-Dimethylphenyl)-6-(4-ethyl-3-(hydroxymethyl)-5-oxo-4,5-dihydro-1H-1,2,4-triazol-1-yl)-7-fluoro-4-(prop-1-en-2-yl)isoquinolin-1(2H)-one] | 9.05 | 9.53 | –

More lines, in order of rising pIC50 ([1]; Homo sapiens, MOLM-13, 72 h), values ahead:

pIC50 ([1]; Homo sapiens, MOLM-13, 72 h) | pIC50 (human DHODH) | pIC50 [1] | Structure (SMILES)
7.52 | 8.22 | – | CCn1c(CO)nn(-c2cc3c(C(C)C)cn(-c4cc(OC)ncc4F)c(=O)c3cc2F)c1=O [Example 91, 6-(4-Ethyl-3-(hydroxymethyl)-5-oxo-4,5-dihydro-1H-1,2,4-triazol-1-yl)-7-fluoro-2-(5-fluoro-2-methoxypyridin-4-yl)-4-isopropylisoquinolin-1(2H)-one]
7.70 | 8.78 | – | C=C(C)c1cn(-c2cccc(OCCO)c2Cl)c(=O)c2cc(F)c(-n3nc(CO)n(CC)c3=O)cc12 [Example 65, 2-(2-Chloro-3-(2-hydroxyethoxy)phenyl)-6-(4-ethyl-3-(hydroxymethyl)-5-oxo-4,5-dihydro-1H-1,2,4-triazol-1-yl)-7-fluoro-4-(prop-1-en-2-yl)isoquinolin-1(2H)-one]
7.70 | 8.18 | – | C=C(C)c1cn(-c2cc(OC)ncc2F)c(=O)c2cc(F)c(-n3nc(CO)n(CC)c3=O)cc12 [Example 85, 6-(4-Ethyl-3-(hydroxymethyl)-5-oxo-4,5-dihydro-1H-1,2,4-triazol-1-yl)-7-fluoro-2-(5-fluoro-2-methoxypyridin-4-yl)-4-(prop-1-en-2-yl)isoquinolin-1(2H)-one]
8.00 | 7.77 | – | C=C(C)c1cn(-c2ccccc2C)c(=O)c2cc(C)c(-n3nc(CO)n(CC)c3=O)cc12 [Example 79, 6-(4-Ethyl-3-(hydroxymethyl)-5-oxo-4,5-dihydro-1H-1,2,4-triazol-1-yl)-7-methyl-4-(prop-1-en-2-yl)-2-(o-tolyl)isoquinolin-1(2H)-one]
8.52 | 8.92 | – | C=C(C)c1cn(-c2cccc(F)c2C)c(=O)c2cc(F)c(-n3nc(CO)n(CC)c3=O)cc12 [Example 86, 6-(4-Ethyl-3-(hydroxymethyl)-5-oxo-4,5-dihydro-1H-1,2,4-triazol-1-yl)-7-fluoro-2-(3-fluoro-2-methylphenyl)-4-(prop-1-en-2-yl)isoquinolin-1(2H)-one]
8.70 | 8.92 | – | CCc1ccccc1-n1cc(C(C)C)c2cc(-n3nc(CO)n(CC)c3=O)c(F)cc2c1=O [Example 89, 6-(4-Ethyl-3-(hydroxymethyl)-5-oxo-4,5-dihydro-1H-1,2,4-triazol-1-yl)-2-(2-ethylphenyl)-7-fluoro-4-isopropylisoquinolin-1(2H)-one]
9.00 | 9.24 | – | CCn1c(CO)nn(-c2cc3c(C(C)C)cn(-c4cc(C)ccc4C)c(=O)c3cc2F)c1=O [Example 75, 2-(2,5-Dimethylphenyl)-6-(4-ethyl-3-(hydroxymethyl)-5-oxo-4,5-dihydro-1H-1,2,4-triazol-1-yl)-7-fluoro-4-isopropylisoquinolin-1(2H)-one]
9.05 | 9.22 | – | CCn1c(CO)nn(-c2cc3c(C(C)C)cn(-c4cc(F)ccc4C)c(=O)c3cc2F)c1=O [Example 67, 6-(4-Ethyl-3-(hydroxymethyl)-5-oxo-4,5-dihydro-1H-1,2,4-triazol-1-yl)-7-fluoro-2-(5-fluoro-2-methylphenyl)-4-isopropylisoquinolin-1(2H)-one]
9.15 | 9.36 | – | CCn1c(CO)nn(-c2cc3c(C(C)C)cn(-c4c(C)cccc4F)c(=O)c3cc2F)c1=O [Example 69, 6-(4-Ethyl-3-(hydroxymethyl)-5-oxo-4,5-dihydro-1H-1,2,4-triazol-1-yl)-7-fluoro-2-(2-fluoro-6-methylphenyl)-4-isopropylisoquinolin-1(2H)-one]
9.15 | 9.25 | – | C=C(C)c1cn(-c2c(C)cccc2F)c(=O)c2cc(F)c(-n3nc(CO)n(CC)c3=O)cc12 [Example 73, 6-(4-Ethyl-3-(hydroxymethyl)-5-oxo-4,5-dihydro-1H-1,2,4-triazol-1-yl)-7-fluoro-2-(2-fluoro-6-methylphenyl)-4-(prop-1-en-2-yl)isoquinolin-1(2H)-one]
9.22 | 9.33 | – | [2H]C([2H])([2H])c1ccccc1-n1cc(C(C)C)c2cc(-n3nc(CO)n(CC)c3=O)c(F)cc2c1=O [Example 93, 6-(4-Ethyl-3-(hydroxymethyl)-5-oxo-4,5-dihydro-1H-1,2,4-triazol-1-yl)-7-fluoro-4-isopropyl-2-(2-(methyl-d3)phenyl)isoquinolin-1(2H)-one]
9.40 | 9.62 | – | C=C(C)c1cn(-c2cccc(OC)c2Cl)c(=O)c2cc(F)c(-n3nc(CO)n(CC)c3=O)cc12 [Example 70, 2-(2-Chloro-3-methoxyphenyl)-6-(4-ethyl-3-(hydroxymethyl)-5-oxo-4,5-dihydro-1H-1,2,4-triazol-1-yl)-7-fluoro-4-(prop-1-en-2-yl)isoquinolin-1(2H)-one]
9.52 | > 9.77 | – | C=C(C)c1cn(-c2ccccc2F)c(=O)c2cc(F)c(-n3nc(CO)n(CC)c3=O)cc12 [Example 66, 6-(4-Ethyl-3-(hydroxymethyl)-5-oxo-4,5-dihydro-1H-1,2,4-triazol-1-yl)-7-fluoro-2-(2-fluorophenyl)-4-(prop-1-en-2-yl)isoquinolin-1(2H)-one]
9.52 | 9.56 | – | CCn1c(CO)nn(-c2cc3c(C(C)C)cn(-c4c(F)ccc(OC)c4Cl)c(=O)c3cc2F)c1=O [Example 80, 2-(2-Chloro-6-fluoro-3-methoxyphenyl)-6-(4-ethyl-3-(hydroxymethyl)-5-oxo-4,5-dihydro-1H-1,2,4-triazol-1-yl)-7-fluoro-4-isopropylisoquinolin-1(2H)-one]
